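Following 48 hours of exposure in 96-well plates, responses at five concentrations were used to interpolate endpoints linearly. GI50 = concentration required for 50% inhibition of growth. The concentration for full growth arrest is given as TGI.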
Legend:
Assay in all cases: inhibition of tumour cell growth, NCI panel, 48 h
786-0 renal = test system: 786-0 renal
K-562 leukemia = test system: K-562 leukemia
MALME-3M melanoma = test system: MALME-3M melanoma
TK-10 renal = test system: TK-10 renal
NCI-H23 lung = test system: NCI-H23 lung
SW-620 colon = test system: SW-620 colon
MDA-MB-231 breast = test system: MDA-MB-231 breast
SR leukemia = test system: SR leukemia
T-47D breast = test system: T-47D breast
BT-549 breast = test system: BT-549 breast

SMILES	TGI (786-0 renal) [µM]	TGI (K-562 leukemia) [µM]	TGI (MALME-3M melanoma) [µM]	TGI (TK-10 renal) [µM]	TGI (NCI-H23 lung) [µM]	TGI (SW-620 colon) [µM]	TGI (MDA-MB-231 breast) [µM]	TGI (SR leukemia) [µM]	TGI (T-47D breast) [µM]	GI50 (786-0 renal) [µM]	GI50 (K-562 leukemia) [µM]	GI50 (MALME-3M melanoma) [µM]	GI50 (TK-10 renal) [µM]	GI50 (MDA-MB-231 breast) [µM]	GI50 (SR leukemia) [µM]	GI50 (NCI-H23 lung) [µM]	GI50 (T-47D breast) [µM]	GI50 (SW-620 colon) [µM]	TGI (BT-549 breast) [µM]	GI50 (BT-549 breast) [µM]
CC(=O)O[C@H]1CCC2[C@@H]3CCC4=C(O)C(=O)C(C#N)C[C@]4(C)C3CC[C@@]21C (stereo partly drawn)	> 100	> 100	> 100	> 100	> 100	> 100	–	–	–	–	–	–	–	–	–	–	–	–	–	–
CN1C(c2ccccc2)CS(=O)(=O)CS1(=O)=O (stereo not drawn)	> 100	–	> 100	> 100	> 100	> 100	–	–	–	–	–	–	–	–	–	–	–	–	–	–
O=C(O)c1cc2ccccc2c(N=Nc2cc(C(F)(F)F)ccc2Cl)c1O	> 100	> 100	> 100	> 100	> 100	> 100	86.7	> 100	> 100	–	–	–	–	–	–	–	–	–	–	–
CN(CC#N)C1CCCC[C@H]1O (stereo partly drawn)	> 100	> 100	> 100	> 100	> 100	> 100	–	> 100	–	–	–	–	–	–	–	–	–	–	–	–
CN(C)CCNC(=O)c1cccc2c(Nc3ccc(S(N)(=O)=O)cc3)c3ccccc3nc12	4.92	9.61	3.88	–	5.39	1.96	–	> 100	–	–	–	–	–	–	–	–	–	–	–	–
O=c1c(O)cccc2cc(O)c(O)c(O)c12	> 100	> 100	> 100	> 100	> 100	> 100	> 100	> 100	> 100	62.1	3.95	4.99	55	7.5	3.76	8.89	> 100	20.2	–	–
COC1=CC23CCCN2CCc2cc4c(cc2C3C1O)OCO4 (stereo not drawn)	> 100	–	> 100	> 100	> 100	> 100	> 100	–	> 100	–	–	–	–	–	–	–	–	–	> 100	–
Cc1ccc(NC(=O)C(=O)CC(=O)C2CCOC2=O)c(C)c1 (stereo not drawn)	> 100	> 100	> 100	> 100	> 100	> 100	–	–	–	–	–	–	–	–	–	–	–	–	–	–
O=S(=O)(N/N=C/c1cccc(Cl)c1Cl)c1ccccc1	> 100	> 100	> 100	> 100	> 100	> 100	–	> 100	–	–	–	–	–	–	–	–	–	–	–	–
O=c1cc(-c2ccccc2)oc2cc(O)cc(O)c12	60.1	63.1	51.8	72.9	62.8	–	–	65.6	–	–	–	–	–	–	–	–	–	–	–	–
CN(C)c1ncc(-c2ccc(C(F)(F)F)cc2)c(NC2CCCCCC2)n1	33.4	41.1	40.4	> 100	57.3	37.3	28.8	–	> 100	14.8	14.6	14.4	40.6	13.3	–	17.3	25	15	44.4	20.4
CN(CCc1ccccn1)c1nc(=[N+](C)C)ss1	> 100	> 100	> 100	> 100	> 100	> 100	–	–	–	–	–	–	–	–	–	–	–	–	–	–
CC(C)C1CC2C(=O)N(c3ccccc3)C(=O)C2c2[nH]c3ccccc3c21 (stereo not drawn)	> 100	18.7	> 100	97.4	84	> 100	–	–	–	–	–	–	–	–	–	–	–	–	–	–
CC(=O)O[C@@H]1[C@@H](O)C2=C3[C@]4(C)[C@@H]1C(C)(C)C(=O)C[C@@H]4[C@]3(O)[C@H](OC(C)=O)[C@@]1(C[C@@H]1C)C2=O	32.4	> 100	29.3	29.7	> 100	42.8	37.7	–	36	–	–	–	–	–	–	–	–	–	37	–
Nc1nc2cc3ccc(C4CC(O)C(CO)O4)cc3cc2c(=O)[nH]1 (stereo not drawn)	> 100	> 100	–	–	> 100	> 100	> 100	–	> 100	> 100	> 100	–	–	> 100	–	> 100	> 100	> 100	> 100	> 100
CC#C/C(=N\OC[C@H]1COCCN1)c1ccc2ncnc(Nc3ccc(OCc4cccc(F)c4)c(Cl)c3)c2c1	3.07	–	–	1.48	3.41	–	3.14	5.34	4.47	1.52	–	–	0.0335	1.72	1.68	1.74	0.0582	–	20.5	6.06
O=C(c1ccccc1)c1oc2ccc(Br)cc2c1-c1cnn(-c2ccccc2)c1	> 100	> 100	> 100	–	> 100	–	–	–	–	–	–	–	–	–	–	–	–	–	–	–
CN(C)CCSc1cccc(-c2cc(-c3cccc(SCCN(C)C)c3)nc(SCCN(C)C)n2)c1	20.9	3.1	3.38	9.65	15.3	3.95	–	4.49	–	–	–	–	–	–	–	–	–	–	–	–
O=C(Cc1nc2ccccc2s1)C(=O)Nc1cccc(Cl)c1	> 100	> 100	> 100	> 100	> 100	> 100	–	–	–	–	–	–	–	–	–	–	–	–	–	–
O=C(/C=C/C=C/c1c(C2CC2)nc2ccccc2c1-c1ccc(F)cc1)c1cccs1	> 100	–	–	32.9	> 100	11.8	> 100	–	65.6	2.76	–	–	4.58	2.58	–	2.35	0.718	1.67	5.07	1.59
O=S(=O)(SCc1ccccc1)C(c1ccccc1)c1ccccc1	> 100	> 100	> 100	> 100	77.6	26.9	–	74.6	–	–	–	–	–	–	–	–	–	–	–	–
CN(/N=C/c1cccc2cccnc12)c1ccc([N+](=O)[O-])cc1	> 100	> 100	> 100	> 100	> 100	> 100	–	–	–	–	–	–	–	–	–	–	–	–	–	–
CC1=C(C(=O)NCc2ccccc2)C(c2ccc([N+](=O)[O-])cc2)C(C(=O)NCc2ccccc2)=C(C)N1	> 100	> 100	> 100	> 100	> 100	> 100	–	–	–	–	–	–	–	–	–	–	–	–	–	–
Cc1ccc(C2NC(=O)c3ccccc3N2)s1 (stereo not drawn)	> 100	> 100	> 100	> 100	58.2	> 100	–	> 100	–	–	–	–	–	–	–	–	–	–	–	–
CC1=C(C(=O)Nc2cc(=O)n(C)c(=O)n2C)C(c2ccc([N+](=O)[O-])cc2)C(C(=O)Nc2cc(=O)n(C)c(=O)n2C)=C(C)N1	> 100	> 100	> 100	> 100	> 100	> 100	–	–	–	–	–	–	–	–	–	–	–	–	–	–

Source: PubChem BioAssay (NCI)
